Laboratory results as given in patent US8524705B2, “2-oxo-2-(2-phenyl-5,6,7,8-tetrahydro-indolizin-3-yl)-acetamide derivatives and related compounds as antifungal agents” (F2G Limited British Body Corporate, priority 2007, dated 2013).
In brackets after ≈: the same amount, converted by molar mass.

Key:
Assay type in all cases: cell-based
Details in all cases: banded into grades
Aspergillus flavus = test: Measurement of Minimum Inhibitory Concentrations (MICs), A. flavus
Experimental: (§1) Between 1 and 5 mgs of compound were accurately weighed out into a sterile Eppendorf tube. The compound was dissolved in DMSO to give a solution containing 5 mg/mL. Tubes were stored at −20° C. until required. On the day of testing thawed solutions were vortex mixed to ensure homogeneity. 30 μL of solution was removed and added to 570 μL of sterile water in a separate sterile Eppendorf. The thoroughly mixed solution was used to prepare a series of doubling dilutions in water, in a deep well plate. […] replicate plates were prepared using a Minitrak by aspirating […] from each well into eleven clear polystyrene 96 well plates. Spores of Aspergillus spp. (Aspergillus fumigatus [two strains], Aspergillus terreus [two strains], Aspergillus niger and Aspergillus flavus) were harvested from cultures grown on Sabarauds agar for 5 days, and resuspended in PBS/Tween 80 to approx 1×10^7 cfu/mL. Each organism suspension was diluted in YAG medium (1% glucose, 1% ammonium chloride and 0.5% yeast extract) to 0.5-2×10^4 cfu/mL. 80 μL of an organism suspension was added to each well of the plate containing drug dilutions. This produced MIC plates with a drug range 50-0.05 mg/L and organism inocula of 1−2×10^4 cfu/mL for Aspergillus spp. All plates were incubated for 24 hrs at 35° C. Growth was assessed by monitoring the optical density at 485 nm for each well. The MIC of a compound is the lowest drug concentration that inhibits growth of an organism by >70% compared with a drug free control. MICs are recorded as mg/L. In cases where the MIC of an organism is >=0.05 mg/L the MIC is repeated using a concentration range of 0.5-0.0005 mg/L. Other growth media can be used for susceptibility testing, and the activity of the described compounds was also assessed in RPMI medium containing 2% glucose, and 0.135M MOPS buffer. MIC tests in YAG medium have more clear-cut endpoints and have slightly lower MICs than those performed in RPMI medium. The following organisms were tested: Aspergillus flavus, Aspergillus fumigatus AF293 and AF210, Aspergillus niger and Aspergillus terreus AT4 and AT49.

[1] = test system: Aspergillus fumigatus AF293; test: Measurement of Minimum Inhibitory Concentrations (MICs), A. fumigatus
Experimental: as §1

[2] = test system: Aspergillus fumigatus AF210; test: Measurement of Minimum Inhibitory Concentrations (MICs), A. fumigatus 210
Experimental: as §1

Aspergillus niger = test: Measurement of Minimum Inhibitory Concentrations (MICs), A. niger
Experimental: as §1

Aspergillus terreus AT4 = test: Measurement of Minimum Inhibitory Concentrations (MICs), A. terreus
Experimental: as §1

Aspergillus terreus AT49 = test: Measurement of Minimum Inhibitory Concentrations (MICs), A. terreus 49
Experimental: as §1

[3] = RPMI medium containing 2% glucose, 0.135M MOPS buffer
[4] = YAG medium, 24 hrs at 35° C., >70% growth inhibition

SMILES | MIC (Aspergillus flavus; [3]) | MIC (Aspergillus flavus; [4]) | MIC [1, 3] | MIC [1, 4] | MIC [2, 3] | MIC [2, 4] | MIC (Aspergillus niger; [3]) | MIC (Aspergillus niger; [4]) | MIC (Aspergillus terreus AT4; [3]) | MIC (Aspergillus terreus AT4; [4]) | MIC (Aspergillus terreus AT49; [3]) | MIC (Aspergillus terreus AT49; [4])
O=C(Nc1cccc2ccccc12)C(=O)c1c(-c2ccccc2)cc2n1CCCC2 [Example 28, N-Naphthalen-1-yl-2-oxo-2-(2-phenyl-5,6,7,8-tetrahydro-indolizin-3-yl)-acetamide] | < 1 µg/mL | < 1 µg/mL | > 10 µg/mL | < 1 µg/mL | > 10 µg/mL | < 1 µg/mL | < 1 µg/mL | < 1 µg/mL | < 1 µg/mL | < 1 µg/mL | < 1 µg/mL | < 1 µg/mL
Cc1cc(C)nc(N2CCN(c3ccc(NC(=O)C(=O)c4c(-c5ccccc5)cc5n4CCCC5)c(Cl)c3)CC2)c1 [Example 30, N-{2-Chloro-4-[4-(4,6-dimethyl-pyridin-2-yl)-piperazin-1-yl]-phenyl}-2-oxo-2-(2-phenyl-5,6,7,8-tetrahydro-indolizin-3-yl)-acetamide] | < 1 µg/mL | < 1 µg/mL | < 1 µg/mL | < 1 µg/mL | < 1 µg/mL | < 1 µg/mL | < 1 µg/mL | < 1 µg/mL | < 1 µg/mL | < 1 µg/mL | < 1 µg/mL | < 1 µg/mL
Cc1cc(C)nc(N2CCN(c3ccc(NC(=O)C(=O)c4c(-c5ccccc5)cc5n4CCCC5)cc3O)CC2)c1 [Example 31, N-{4-[4-(4,6-Dimethyl-pyridin-2-yl)-piperazin-1-yl]-3-hydroxy-phenyl}-2-oxo-2-(2-phenyl-5,6,7,8-tetrahydro-indolizin-3-yl)-acetamide] | < 1 µg/mL | < 1 µg/mL | < 1 µg/mL | < 1 µg/mL | < 1 µg/mL | < 1 µg/mL | < 1 µg/mL | < 1 µg/mL | < 1 µg/mL | < 1 µg/mL | < 1 µg/mL | < 1 µg/mL
O=C(Nc1ccc2c(c1)OCC2)C(=O)c1c(-c2ccccc2)cc2n1CCCC2 [Example 32, N-(2,3-Dihydro-benzofuran-6-yl)-2-oxo-2-(2-phenyl-5,6,7,8-tetrahydro-indolizin-3-yl)-acetamide] | 1 to 10 µg/mL (≈ 2.59 to 25.9 µM) | < 1 µg/mL | 1 to 10 µg/mL (≈ 2.59 to 25.9 µM) | < 1 µg/mL | 1 to 10 µg/mL (≈ 2.59 to 25.9 µM) | < 1 µg/mL | < 1 µg/mL | < 1 µg/mL | < 1 µg/mL | < 1 µg/mL | < 1 µg/mL | < 1 µg/mL

The next lines start with the values.

MIC (Aspergillus flavus; [3]) | MIC (Aspergillus flavus; [4]) | MIC [1, 3] | MIC [1, 4] | MIC [2, 3] | MIC [2, 4] | MIC (Aspergillus niger; [3]) | MIC (Aspergillus niger; [4]) | MIC (Aspergillus terreus AT4; [3]) | MIC (Aspergillus terreus AT4; [4]) | MIC (Aspergillus terreus AT49; [3]) | MIC (Aspergillus terreus AT49; [4]) | SMILES
> 10 µg/mL | 1 to 10 µg/mL (≈ 1.45 to 14.5 µM) | > 10 µg/mL | > 10 µg/mL | > 10 µg/mL | > 10 µg/mL | > 10 µg/mL | > 10 µg/mL | > 10 µg/mL | > 10 µg/mL | > 10 µg/mL | > 10 µg/mL | Cc1cc(C)nc(N2CCN(c3ccc(NC(=O)C(=O)c4c(-c5ccccc5)cc5n4CCCC5)cc3COCCCN3CCOCC3)CC2)c1 [Example 26, N-[4-[4-(4,6-Dimethyl-pyridin-2-yl)-piperazin-1-yl]-3-(3-morpholin-4-yl-propoxymethyl)-phenyl]-2-oxo-2-(2-phenyl-5,6,7,8-tetrahydro-indolizin-3-yl)-acetamide]
< 1 µg/mL | < 1 µg/mL | < 1 µg/mL | < 1 µg/mL | < 1 µg/mL | < 1 µg/mL | < 1 µg/mL | < 1 µg/mL | < 1 µg/mL | < 1 µg/mL | < 1 µg/mL | < 1 µg/mL | Cc1cc(C)nc(N2CCN(c3ccc(NC(=O)C(=O)c4c(-c5ccccc5)cc5n4CCCC5)cc3Cl)CC2)c1 [Example 27, N-{3-Chloro-4-[4-(4,6-dimethyl-pyridin-2-yl)-piperazin-1-yl]-phenyl}-2-oxo-2-(2-phenyl-5,6,7,8-tetrahydro-indolizin-3-yl)-acetamide]
> 10 µg/mL | > 10 µg/mL | > 10 µg/mL | > 10 µg/mL | > 10 µg/mL | 1 to 10 µg/mL (≈ 1.58 to 15.8 µM) | 1 to 10 µg/mL (≈ 1.58 to 15.8 µM) | > 10 µg/mL | > 10 µg/mL | 1 to 10 µg/mL (≈ 1.58 to 15.8 µM) | 1 to 10 µg/mL (≈ 1.58 to 15.8 µM) | 1 to 10 µg/mL (≈ 1.58 to 15.8 µM) | Cc1cc(C)nc(N2CCN(c3ccc(NC(=O)C(=O)c4c(-c5ccccc5)cc5n4CCCC5)cc3COCCN(C)C)CC2)c1 [Example 29, N-{3-(2-Dimethylamino-ethoxymethyl)-4-[4-(4,6-dimethyl-pyridin-2-yl)-piperazin-1-yl]-phenyl}-2-oxo-2-(2-phenyl-5,6,7,8-tetrahydro-indolizin-3-yl)-acetamide]
